Measured values: patent US11260012B2, “Preserved silk protein fragment compositions and articles manufactured therefrom” (Evolved By Nature, Inc., priority 2015, dated 2022)
One block for each molecule: values may come before it.

Experiments:
[1] = Gel formation with vitamin C derivatives; format: physicochemical; settings: for time to gel formation: 100 mg vitamin C derivative in 15 mL of 2% silk solution
Method: The Tables in FIGS. 89A-89B summarize embodiments of gels of the present disclosure. Ascorbic acid-2-glucoside was the most successful vitamin C derivative at gel formation with gel being formed in a 2% silk solution in 3 days. […] In all cases 100 mg of vitamin C derivative was mixed in 15 mL of 2% silk solution, and all gels had the same appearance as gels created with ascorbic acid.
Gels were also cast with combinations of two vitamin C options. In each case, at least one of the vitamin C options was known to cause gelation (L-ascorbic acid or ascorbic acid-2-glucoside). All combination gels were able to gel at 1% total vitamin C additive concentration. […] Without wishing to be bound by theory, it appears there is a relationship between vitamin C concentration, silk concentration, and gelation. An increase in vitamin C at a given concentration of silk will result in a longer time to gelation or inhibit gelation. This may be due to the vitamin C molecule physically blocking interaction between silk protein fragments or cross-linking of silk protein. Modification to pH may allow additional concentrations of vitamin C and derivatives thereof to be added.
Ascorbyl tetraisopalmitate is a highly viscous, oil soluble liquid that might need the help of an emulsifier to possible dissolve in aqueous silk solution.

[2] = tested on: C. albicans and A. brasiliensis; assay: Challenge testing of preservative effect, antifungal (Method A or Method B); format: cell-based
Method: Challenge testing of various compositions of the present disclosure to determine preservative effects was performed using the following methods: (1) Method A or (2) Method B. As used herein, a “count” refers to a typical measurement for measuring microbial (i.e., bacterial and fungal) growth.
Method B: • (1) Bacteria were evaluated and were considered to meet a threshold requirement by the following parameters: (i) […] measured no less than 3 log reduction from the initial calculated count after an incubation period of 14 days (i.e., 2 weeks), and (ii) bacteria measured no increase from an incubation period starting at the 14 day count and lasting until the 28 day count (i.e., 2 week incubation period of a 4 week/1 month experiment). • (2) C. albicans was evaluated and considered to meet a threshold requirement by the following parameters: (i) […] measured no less than a 1 log reduction after a 14 day incubation period, and (ii) C. albicans measured no increase from an incubation period starting at the 14 day count and lasting until the to the 28 day count (i.e., 2 week incubation period of a 4 week/1 month experiment). • (3) A. brasiliensis was evaluated and considered to meet a threshold requirement by the following parameters: A. brasiliensis measured no increase from the initial calculated count after an incubation period of 14 days (i.e., a 2 week incubation) and an incubation period of 28 days (i.e., a 4 week/1 month incubation).
Using Method A described above, if the formulation meets the requirements defined under Method A, the microbiological risk is considered to be tolerable (the cosmetic product is protected against microbial proliferation that may present a potential risk for the user) and the cosmetic product is deemed to meet the requirements of this International Standard without additional rationale.
For example, the pump is considered a protective device for risk reduction, i.e., prevention against bacterial and/or fungal growth.

[3] = HPLC chromatograms of vitamin C degradation, aged silk films vs unstabilized vitamin C; format: physicochemical; settings: after 1 hour at ambient conditions without chemical stabilization
Method: FIGS. 36A and 36B show two HPLC chromatograms from samples comprising vitamin C. […] No degradation products were visible. FIG. 59 is a table summarizing the vitamin C concentration in silk protein fragment-films (2% silk films air dried at RT) of the present disclosure. In FIG. 59 processing conditions included 100° C. extraction for 20 min, RT rinse, LiBr in 60° C. oven for 4-6 hours. FIG. 60 is a table summarizing the stability of vitamin C in chemically stabilized solutions. FIGS. 89A-89B are tables summarizing vitamin C stability in SPF gels without chemical stabilizers as compared to chemically stabilized vitamin C in competitive anti-aging skincare products. […] Without wishing to be bound by theory, it appears there is a relationship between vitamin C concentration, silk concentration, and gelation. An increase in vitamin C at a given concentration of silk will result in a longer time to gelation or inhibit gelation. This may be due to the vitamin C molecule physically blocking interaction between silk protein fragments or cross-linking of silk protein.

[4] = in USSSC formulation, concentration of 0.1%

Compound: O=C1O[C@H]([C@@H](O)CO)C(O)=C1O[C@H]1O[C@H](CO)[C@@H](O)[C@H](O)[C@H]1O [Ascorbic acid-2-glucoside, Ascorbic Acid-2-Glucoside]
time to gel formation [1]: 3 days

Compound: CCCCCCCCC(CCCCCC)C(=O)OC[C@H](OC(=O)C(CCCCCC)CCCCCCCC)[C@H]1OC(=O)C(OC(=O)C(CCCCCC)CCCCCCCC)=C1OC(=O)C(CCCCCC)CCCCCCCC (stereo partly drawn) [Ascorbyl tetraisopalmitate, Ascorbyl Tetraisopalmitate]
ability to dissolve or disperse in aqueous silk solution [1]: unable to dissolve or be dispersed

Compound: COc1ccc(C(=O)[O-])cc1.[Na+] [Sodium anisate]
antifungal preservative effectiveness ([2]; in SER formulation, folded in after gelation, 0.5-1.0%, pH of ˜5.2-5.9, with lemongrass or rosehip oil): effective antifungal preservative
antifungal preservative effectiveness ([2]; in SSC formulation, folded in after gelation, 0.1-1.0% and pH of 4.2-5.9): effective antifungal preservative
antifungal preservative effectiveness ([2]; in USSSC formulation, folded in after gelation, 0.5-1.0% and pH of 4.2-5.9): effective antifungal preservative

Compound: O=C1O[C@H]([C@@H](O)CO)C([O-])=C1OP(=O)([O-])[O-].[Na+].[Na+].[Na+] [Sodium ascorbyl phosphate from Aromantic, Sodium Ascorbyl Phosphate]
time to gel formation [1]: failed to create a gel

Compound: O=C([O-])c1ccccc1.[Na+] [Sodium benzoate]
antifungal preservative effectiveness ([2]; in SER formulation, concentration of 0.1% and pH of 3.28): effective antifungal preservative
antifungal preservative effectiveness ([2]; in SSC formulation, concentration of 0.1% and pH of 3.7 and 4.2): effective antifungal preservative
antifungal preservative effectiveness [2, 4]: effective antifungal preservatives

Compound: C/C=C/C=C/C(=O)[O-].[K+] [potassium sorbate]
antifungal preservative effectiveness [2, 4]: effective antifungal preservatives

Next, values leading:

time to gel formation [1]: 28 days
Compound: O=C1O[C@H]([C@@H](O)CO)C([O-])=C1OP(=O)([O-])[O-].[Na+].[Na+].[Na+] [Sodium ascorbyl phosphate from DSM supplier]

vitamin C degradation products in HPLC chromatogram [3]: degradation products are visible
Compound: O=C1O[C@H]([C@@H](O)CO)C(O)=C1O [vitamin C, L-ascorbic acid]
